Experiments:
P. aeruginosa ATCC 15422 = experiment: Crystal violet staining assay, transition from microcolonies to fully formed biofilms; type: cell-based; conditions: Pseudomonas aeruginosa, ATCC15422, read-out: Inhibitory activity on the transition from microcolonies to fully formed biofilms
Procedure: (§1) Crystal violet-based biomass staining assay was performed to assess the effects of the compounds on the transition from microcolonies to fully formed as recently described in [26] with minor modifications. Briefly, diluted cultures of exponentially grown P. aeruginosa ATCC 9027, ATCC 15442 and PA01, and E. coli K-12 (10^6 CFU/mL) were added to the 96-microtiter well plates (200 µL per well) to form microcolonies for two hours (37 °C). At the end of this period, bacterial suspensions were removed, compounds at a final concentration of 400 µM and fresh LB media were added, and plates were incubated at 37 °C, with shaking (200 rpm) for additional 22 h. After the incubation period, media was discarded and the biofilms were washed once with sterile Milli-Q (MQ)-water. Biomass was fixed with methanol for 15 min followed by staining with 0.23% (v/v) crystal violet (Sigma-Aldrich, Munich, Germany) solution prepared in MQ-water (200 µL per well) for 5 min. Thereafter, wells were washed twice with MQ-water and 200 µL of 96% ethanol was added to the wells. Absorbance was measured at 595 nm using Varioskan Flash after 1 h.

P. aeruginosa PAO1 [1] = experiment: as above; type: cell-based; conditions: Pseudomonas aeruginosa, P. aeruginosa PAO1, mean ± SD, read-out: Inhibitory activity on the transition from microcolonies to fully formed biofilms
Procedure: as §1

E. coli K-12 = experiment: as above; type: cell-based; conditions: Escherichia coli, K12, E. coli K-12, mean ± SD, read-out: Inhibitory activity on the transition from microcolonies to fully formed biofilms
Procedure: as §1

P. aeruginosa ATCC 9027 = experiment: as above; type: cell-based; conditions: Pseudomonas aeruginosa, ATCC9027, P. aeruginosa ATCC 9027, mean ± SD, read-out: Inhibitory activity on the transition from microcolonies to fully formed biofilms
Procedure: as §1

C. violaceum ATCC 31532 [2] = experiment: Violacein extraction assay (QS-mediated violacein production); type: cell-based, Chromobacterium violaceum; conditions: Chromobacterium violaceum; for inhibition at 400 µM: ATCC31532, 24 h, primary screening, 24 h, C. violaceum ATCC 31532, read-out: Inhibition-% of violacein production; for IC50: ATCC31532, C. violaceum ATCC 31532, 15 concentration points, read-out: IC50 of violacein production
Procedure: (§2) The initial screening of compound library was conducted using two strains of C. violaceum as model bacterium, and two assays (violacein extraction and resazurin staining) in parallel as recently optimized in [26]. For the screening assays, overnight cultures of C. violaceum were diluted in LB broth supplemented with yeast extract (LBY) (0.1% w/v, Sigma Aldrich, St. Louis, MO, USA). Culture of C. violaceum CV026 was further supplemented with 0.5 µM N-(β-ketocaproyl)-L-Homoserine lactone (3-O-C6-(L)-HSL, Cayman chemicals, Ann Arbor, MI, USA) to induce the violacein production. Bacteria (10^6 CFU/mL) was exposed to compounds (400 µM) in a total volume of 200 µL in 96-microtiter well plates (Nunc, Roskilde, Denmark), and incubated at 27 °C, with shaking at 200 rpm for 24 h. DMSO was added in untreated control wells and bacteria-free wells with only LBY were included controls. Additionally, autoinducer-free wells containing only bacteria were included in C. violaceum CV026 plates. Plates were prepared in duplicates. Quercetin dihydrate (Carl Roth GmbH, Karlsruhe, Germany) at 400 µM was used as positive control in violacein extraction assay, and azithromycin (Cayman chemicals, Ann Arbor, MI, USA) at 10 µM in viability assay. Both control compounds were prepared in DMSO. DMSO concentration was 2.5% throughout the experiments.
(§3) After incubation period of 24 h, plates were centrifuged (Allegra™ X-12R Benchtop centrifuge, Beckman Coulter Inc., Fullerton, CA, USA) at 3000 rpm for 10 min to precipitate the violacein. Supernatants were discarded from the wells by pipetting, and pellets were re-suspended in 200 μL of 96% ethanol by scraping and mixing followed by centrifugation (3000 rpm, 10 min). Thereafter, 100 μL of supernatants were transferred to sterile 96-microtiter well plates, and violacein was quantified by reading the optical density at 595 nm using Varioskan Flash. Inhibition of violacein production was expressed as inhibition percentages of the untreated biofilms (Equation (1)):Inhibition-% = [(untreated control OD595 − sample OD595)/(untreated control OD595 − media control OD595)] × 100%(1) in which untreated control = C. violaceum + DMSO, media control = LBY, and sample = C. violaceum treated with a compound. Later on, violacein extraction assay was also utilized for the determination of half inhibitory concentrations of the compounds.

C. violaceum CV026 = experiment: Violacein extraction assay (QS-mediated violacein production), mutant strain with exogenous autoinducer; type: cell-based, Chromobacterium violaceum; conditions: Chromobacterium violaceum, CV026, 24 h, read-out: Inhibition-% of violacein production
Procedure: as §2, §3

P. aeruginosa PAO1 [3] = experiment: Swimming motility assay; type: cell-based; conditions: Pseudomonas aeruginosa, highest test concentration (400 µM)
Procedure: Assays were performed according to the protocols previously described in [30, 74] with some modifications. The swarming agar was prepared in MQ-water consisting of 0.3% (w/v) agar, 1% (w/v) peptone, 0.5% (w/v) yeast extract and 0.5% (w/v) sodium chloride, and the swimming agar similarly but without yeast extract. Compounds at a final concentration of 400 µM and 100 µM were pre-mixed with 5 mL of agar, and poured over solidified LB agar plates (10 mL/petri dish) as overlays. The plates were allowed to dry at 30 °C for three hours followed by point inoculation with 2 µL of P. aeruginosa PAO1 (~10^8 CFU/mL) and incubation at 37 °C for 18 h. Quercetin was used as a control. Diameters of the swarming and swimming zones were measured after the incubation periods.

[4] = tested on: Staphylococcus aureus biofilms; set-up: method as in PMID 24071942; conditions: cited from earlier work
C. violaceum ATCC 31532 [5] = experiment: Violacein extraction assay (QS-mediated violacein production); type: cell-based; conditions: Chromobacterium violaceum, ATCC31532, 40 µM, C. violaceum ATCC 31532, mean ± SD of three independent tests; read-out: Inhibition-% of violacein production

CCC(=O)Oc1c(-c2ccccc2Cl)oc2ccccc2c1=O [Compound 2117, 2-(2-chlorophenyl)-4-oxochromen-3-yl propanoate]
inhibition at 400 µM (P. aeruginosa ATCC 15422): 11.2 ± 1.8% | inhibition at 400 µM (P. aeruginosa PAO1 [1]): 42.3 ± 12.4% | inhibition at 400 µM (E. coli K-12): 51.3 ± 6.9% | inhibition at 400 µM (P. aeruginosa ATCC 9027): 27.2 ± 6% | inhibition at 400 µM (C. violaceum ATCC 31532 [2]): 102% | IC50 (C. violaceum ATCC 31532 [2]): 9.6 µM | inhibition at 400 µM (C. violaceum CV026): 102% | inhibition at 400 µM (P. aeruginosa PAO1 [3]): 28.1% | Anti-biofilm activity against S. aureus [4]: inactives | inhibition at 40 µM (C. violaceum ATCC 31532 [5]): > 90%

CCCCCCCCCC(=O)Oc1c(-c2ccc(OC)cc2)oc2ccccc2c1=O [Compound 2896, 2-(4-methoxyphenyl)-4-oxochromen-3-yl decanoate]
inhibition at 400 µM (P. aeruginosa ATCC 15422): 28.1 ± 15.1% | inhibition at 400 µM (P. aeruginosa PAO1 [1]): 11.6 ± 11.1% | inhibition at 400 µM (E. coli K-12): 14.3 ± 10.1% | inhibition at 400 µM (P. aeruginosa ATCC 9027): 22.5 ± 3.2% | inhibition at 400 µM (C. violaceum ATCC 31532 [2]): 94.5% | IC50 (C. violaceum ATCC 31532 [2]): 13.9 µM | inhibition at 400 µM (C. violaceum CV026): 91.2% | inhibition at 400 µM (P. aeruginosa PAO1 [3]): 33.9% | Anti-biofilm activity against S. aureus [4]: inactives | inhibition at 40 µM (C. violaceum ATCC 31532 [5]): 83.5 ± 1.4%
